The source of these data is PubChem BioAssay AID489040 (Sanford-Burnham Center for Chemical Genomics, 2010).

Each structure is given as a SMILES string. Active and inactive are the calls of the source.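 How the source made its calls: active means mean half-maximal activating concentration from the dose-response fit at or below a set limit; inactive means the rest.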

The experiment addresses CHO-XBP1 luciferase reporter, IRE1-XBP1 UPR activation. Put plainly: activators of IRE1-XBP1 UPR arm, dose response, counter-screen for apoptotic UPR arm activators, CHO-XBP1 cells, luminescence (AID 489040).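 Further: reporter read after six hours of compound exposure.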
For the compound `O=C(c1ccc(Br)cc1)C(CN1CCOCC1)c1ccccc1` (stereo not given), the EC50 is > 80 µM (inactive).

On to `Cc1cccc(N=Nc2ccc(O)c3ncccc23)c1`, for which the EC50 is > 80 µM (inactive).

Regarding `COc1cc2nc(=S)n3[nH]c(CCn4nc(C)cc4C)nc3c2cc1OC`, the EC50 is > 80 µM (inactive).

With `CN1C(=O)/C(=C/c2cccn2-c2ccc3ccccc3c2)C(=O)NC1=S`, the EC50 is 7.87 µM.

Consider `O=C(/C=C/c1cccnc1)c1ccc(NC(=O)c2cccc(Br)c2)cc1`, for which the EC50 is > 80 µM (inactive).

Turning to `CCc1ccc(NC(=O)C(CC)Sc2nc3cc4c(cc3c(=O)n2Cc2ccco2)OCO4)cc1` (stereo not given), the EC50 is > 80 µM (inactive).

With `Clc1ccc(-c2ccc(/C=N/Nc3nncc(-c4ccccc4)n3)o2)cc1`, the EC50 entry is “inactive”.

In the case of `CCOC(=O)c1sc(N(Cc2ccccc2)C(=O)CCl)nc1C`, the EC50 is 8.65 µM.

As for `COc1c(Cl)cc(Cl)cc1/C=C/C(=O)c1ccc(NC(=O)c2cccs2)cc1`, the EC50 was > 80 µM (inactive).

In the case of `Cc1cccc(Cn2cc(/C=C/[N+](=O)[O-])c3ccccc32)c1`, the EC50 was > 80 µM (inactive).

For the compound `COc1ccccc1-c1cc(C(F)(F)F)nc(S(=O)(=O)CCCC(=O)N2CCCCC2C)n1` (stereo not given), the EC50 is > 80 µM (inactive).

As for `CCc1ccc(N2C(=O)NC(=O)/C(=C\C=C\c3ccco3)C2=O)cc1`, the EC50 is > 80 µM (inactive).

Turning to `Cc1ccc(C(=O)Oc2ccc(Cl)c3cccnc23)cc1[N+](=O)[O-]`, the EC50 was > 80 µM (inactive).

Consider `c1ccc(CSC2=NNC(c3ccccn3)S2)cc1` (stereo not given), for which the EC50 was > 80 µM (inactive).

Turning to `Cc1nn(Cc2c(Cl)cccc2Cl)c(C)c1NC(=O)c1cn(-c2ccccc2)nc1-c1ccccc1`, the EC50 was > 80 µM (inactive).

As to `O=C(CCl)Nc1cccc(S(=O)(=O)NC2=NCCCCC2)c1`, the EC50 is > 80 µM (inactive).

Consider `CSc1nnc(NC(=O)c2nc(S(=O)(=O)Cc3ccccc3F)ncc2Cl)s1`, for which the EC50 was > 80 µM (inactive).

Take `COC(=O)c1c(NC(=O)CC2Nc3ccccc3NC2=O)sc(C)c1C` (stereo not given): the EC50 was > 80 µM (inactive).

For the compound `COc1ccccc1-c1cc(C(F)(F)F)nc(S(=O)(=O)CCCC(=O)NCc2ccc(F)cc2)n1`, the EC50 was > 80 µM (inactive).

For the compound `CCOC(=O)/C(=C\c1ccc(Cl)cc1)c1nc2sc(C)c(C)c2c(=O)[nH]1`, the EC50 is > 80 µM (inactive).

With `COc1ccccc1/C=N\Nc1cc(C)nc(-n2nc(C)cc2C)n1`, the EC50 is > 80 µM (inactive).

As for `COC(=O)C1=C(C)N(c2ccc(C)c(C)c2)/C(=C/c2ccco2)C1=O`, the EC50 is > 80 µM (inactive).

For the compound `Cc1c(C#N)c(NC(=O)CCl)n(Cc2ccc(F)cc2)c1C`, the EC50 was > 80 µM (inactive).

With `N#C/C(=C\c1ccc([N+](=O)[O-])o1)C(=O)Nc1ccc(F)cc1`, the EC50 is > 80 µM (inactive).

As for `CCOC(=O)CSc1cccc2cccnc12`, the EC50 was > 80 µM (inactive).

`O=C(COC(=O)c1ccccc1C(=O)c1ccc(Cl)c([N+](=O)[O-])c1)NC1CCCCCC1`: the EC50 was > 80 µM (inactive).

With `Oc1ccc(CN2CCC(Cc3ccccc3)CC2)c2cccnc12`, the EC50 was > 80 µM (inactive).

For `Cc1ccc(C)c(NC(=S)c2ccccn2)c1`, the EC50 was > 80 µM (inactive).

With `CN1CCN(c2ccc(NC(=O)c3ccc([N+](=O)[O-])o3)cc2Cl)CC1`, the EC50 was > 80 µM (inactive).

Consider `COc1ccc(-c2cc(C(F)(F)F)nc(S(C)(=O)=O)n2)cc1OC`, for which the EC50 was > 80 µM (inactive).

`COc1ccc(C(=O)Cn2c(C(=O)/C=C/c3ccccc3)nc3ccccc32)cc1`: the EC50 was > 80 µM (inactive).

Consider `CC[C@@H](C)[C@H](NC(=O)OC(C)(C)C)c1nnc(S(=O)(=O)Cc2cc(C)ccc2C)o1`, for which the EC50 is > 80 µM (inactive).

For `CCOC(=O)c1c(C)oc2c1c(C(c1cccnc1)N1CCOCC1)c(O)c1ccccc12` (stereo not given), the EC50 was > 80 µM (inactive).

On to `CCN(CC)c1ccc(/C=C2\C(=O)N(c3nnc(C)c(=O)[nH]3)N=C2C)cc1`, for which the EC50 is > 80 µM (inactive).

Consider `O=C(CCl)N1N=C(c2cccs2)CC1c1ccco1` (stereo not given), for which the EC50 is > 80 µM (inactive).

Regarding `COc1ccc(N=Nc2ccc(O)c3ncccc23)cc1`, the EC50 entry is “inactive”.

For `C/C(=N\Nc1ncnc2sc(C)c(C)c12)c1ccccn1`, the EC50 entry was “inactive”.

On to `Cc1cc(C(=O)CCl)c(C)n1CCc1ccc(F)cc1`, for which the EC50 was > 80 µM (inactive).

As to `O=C(NC1CCCC1)C(c1ccc(Cl)cc1)N(Cc1ccc(F)cc1)C(=O)CCl` (stereo not given), the EC50 is > 80 µM (inactive).

On to `CCc1ccc(-n2c(SCC(=O)c3ccc4c(c3)NC(=O)CO4)nc3ccccc3c2=O)cc1`, for which the EC50 was 10.5 µM.

`C=CCn1c(O)c(N=NC(=S)Nc2ccccc2F)c2cc(S(=O)(=O)N3CCOCC3)ccc21`: the EC50 is > 80 µM (inactive).

Turning to `S=C(Nc1ccccc1)Nc1nccs1`, the EC50 was > 80 µM (inactive).

Turning to `Cc1ccccc1/C=C/C(=O)c1ccc([N+](=O)[O-])o1`, the EC50 was > 80 µM (inactive).

In the case of `CC(=O)N(\C=C/C=C/C=C1\Sc2ccccc2C1=O)c1ccccc1`, the EC50 is > 80 µM (inactive).

In the case of `Oc1ccc(/C=N/Nc2ncnc3c2ncn3Cc2ccccc2)cc1O`, the EC50 entry is “inactive”.

On to `N=c1c(-c2nc3ccccc3[nH]2)cc(C(=O)c2ccco2)nn1-c1ccccc1`, for which the EC50 was > 80 µM (inactive).

With `O=C1NC(=O)N(Cc2ccccc2Cl)C(=O)/C1=C/c1cccs1`, the EC50 was > 80 µM (inactive).

Consider `CCc1ccccc1NC(=S)N=Nc1c(O)n(C)c2ccc(S(=O)(=O)N3CCOCC3)cc12`, for which the EC50 was > 80 µM (inactive).

With `COc1ccc(-c2cc3ccccc3oc2=O)cc1NC(=S)NC(=O)c1ccc2c(c1)OCCO2`, the EC50 is 4.27 µM.

For `Cc1ccc(-c2nc(NC(=O)c3nn(C)cc3[N+](=O)[O-])sc2C)cc1C`, the EC50 is > 80 µM (inactive).

As for `Cc1cc(C)nc(SCc2ccc(C(=O)N/N=C/c3cccc(O)c3O)cc2)n1`, the EC50 is > 80 µM (inactive).

For the compound `O=C(NCc1cccnc1)/C(=C\c1ccc(-c2ccc(Br)cc2)o1)S(=O)(=O)c1ccccc1`, the EC50 was > 80 µM (inactive).

On to `Cc1c(NC(=O)CSc2cccc3cccnc23)c(=O)n(-c2ccccc2)n1C`, for which the EC50 was > 80 µM (inactive).

As for `Cn1cc(/C=C2\SC(=O)NC2=S)c2ccccc21`, the EC50 result was “inactive”.

For the compound `O=C(CCl)Nc1cccc(CP(=O)(c2ccccc2)c2ccccc2)c1`, the EC50 was > 80 µM (inactive).

Turning to `CCN(CC)S(=O)(=O)c1ccc(N/N=C(\C)c2ccc3c(c2)OCO3)c([N+](=O)[O-])c1`, the EC50 was 17.5 µM.

On to `Cc1ccc(NC(=O)COc2ccc(/C=C3/SC(=Nc4ccccc4)N(Cc4cccnc4)C3=O)cc2)cc1`, for which the EC50 result is “inactive”.

As to `Cc1ccc(S(=O)(=O)Nc2cccc3cccnc23)c([N+](=O)[O-])c1`, the EC50 was > 80 µM (inactive).

Turning to `COc1ccc(N=c2oc3c(OC)cccc3cc2C(=O)NCc2ccco2)c(OC)c1`, the EC50 entry is “inactive”.

On to `Cc1cc(C)cc(N2C(=O)NC(=O)/C(=C\c3cccn3-c3ccccc3)C2=O)c1`, for which the EC50 was > 80 µM (inactive).

For the compound `O=C(Nc1nc(-c2ccc3ccccc3c2)cs1)c1ccc(N2C(=O)CCC2=O)cc1`, the EC50 is > 80 µM (inactive).

For `OCCNc1nc(Nc2ccc(Br)cc2)nc2ccccc12`, the half-maximal effective concentration (EC50) was 5.17 µM.

As to `O=[N+]([O-])c1cc(-c2ncccn2)c([N+](=O)[O-])s1`, the EC50 is > 80 µM (inactive).

Turning to `Fc1ccc(NC(=S)Nc2nccs2)cc1`, the EC50 is > 80 µM (inactive).

For the compound `O=C(c1ccc(Cl)cc1)C(CN1CCCC1)c1ccccc1` (stereo not given), the EC50 is > 80 µM (inactive).

Take `Cc1cc(C(=O)CCl)c(C)n1CC1COc2ccccc2O1` (stereo not given): the EC50 was > 80 µM (inactive).

`COC(=O)Oc1ccc(/C=C/C(=O)OC(C)C)cc1OC(=O)OC`: the EC50 is > 80 µM (inactive).

With `CCOc1cc(/C=C2/C(=O)ON=C2C)ccc1OCc1ccccc1F`, the EC50 was > 80 µM (inactive).

With `COc1ccc(C(=O)Nc2ccccc2C(=O)N/N=C/c2ccccn2)cc1OC`, the EC50 was > 80 µM (inactive).

Consider `Oc1ccc(CN2CCN(Cc3ccccc3)CC2)c2cccnc12`, for which the EC50 is > 80 µM (inactive).

For `CC1=CC(=O)C(C(C)C)=C/C1=N/OC(=O)c1cccc([N+](=O)[O-])c1`, the EC50 was > 80 µM (inactive).

`CCOc1ccc2nc(SC3CC(=O)N(c4ccc(C)cc4)C3=O)sc2c1` (stereo not given): the EC50 was > 80 µM (inactive).

For the compound `Cc1ccc(Cc2cnc(NC(=O)/C(C#N)=C/c3ccc(-c4cccc([N+](=O)[O-])c4)o3)s2)cc1`, the EC50 was 9.32 µM.

On to `O=C(C[C@H]1C[C@H](C(=O)N2CCCCC2)[C@@]2(CCc3ccccc3)c3[nH]c4ccc(Cl)cc4c3CCN2C1=O)NCCC1=CCCCC1`, for which the EC50 entry is “inactive”.

In the case of `CCCCC1CCC(C(=O)N(CCCC)c2c(N)n(CCCC)c(=O)[nH]c2=O)CC1` (stereo not given), the EC50 is > 80 µM (inactive).

For `CC(C)c1nnc(NC(=O)CCS(=O)(=O)c2nc(-c3cccs3)cc(C(F)(F)F)n2)s1`, the EC50 is > 80 µM (inactive).

For `O=C(Oc1oc(-c2ccco2)nc1C=Nc1ccc(Cl)cc1)c1ccco1`, the EC50 was > 80 µM (inactive).

As for `COc1cc(NC(=O)c2cncc(-c3ccc(C#N)cc3)c2)cc(C(=O)Nc2cccc(C(F)(F)F)c2)c1`, the EC50 was 19.3 µM.

For `Cc1ccc(-c2csc3ncnc(Sc4nnc(CN5CCCCCC5=O)o4)c23)cc1`, the EC50 was > 80 µM (inactive).

For the compound `Cc1ccc(NN2C(=O)C=C(c3ccccc3)C2=O)cc1`, the EC50 is > 80 µM (inactive).

On to `Oc1[nH]c2ccc(Br)cc2c1N=NC(=S)N1CCOCC1`, for which the EC50 is > 80 µM (inactive).

On to `S=c1[nH]nc(-c2cc(-c3ccccc3)n[nH]2)n1/N=C/C(Br)=C/c1ccccc1`, for which the EC50 is > 80 µM (inactive).

With `Cc1cccc(Nc2nc(-c3ccccn3)cs2)n1`, the EC50 is > 80 µM (inactive).

`CCOc1cc(/C=N/NC(N)=S)cc(Br)c1OCc1ccccc1C`: the EC50 was > 80 µM (inactive).

As to `COc1ccc(N=Cc2c(O)c3ccccc3oc2=O)cc1`, the EC50 was 11.6 µM.
